“Also recorded” adds a separate entry of the source.
What was measured:
Format in all cases: biochemical
[1] = target: T1, HγD-ox (Homo sapiens, UniProt P07320); test: Thermal unfolding (Tm) of oxidized HγD; details: 100 μM agent, 360/320 nm ratio; 68 ± 0.07 °C without agent
T1 construct: made in house; host or cells: Escherichia coli BL21(DE3) pLysS, pET3d vector
T1 sequence (P07320 1-174): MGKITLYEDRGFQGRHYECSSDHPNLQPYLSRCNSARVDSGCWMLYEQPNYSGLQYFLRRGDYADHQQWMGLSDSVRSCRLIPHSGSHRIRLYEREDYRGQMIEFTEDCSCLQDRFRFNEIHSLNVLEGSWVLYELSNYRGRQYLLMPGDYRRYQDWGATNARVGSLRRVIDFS
Source text: (§1) In postsubmission experiments, we attempted to find mechanistic clues relevant to the use of an H2O2 oxidation step prior to the thermal stress used during the initial drug screen. For this reason, we did a comparative study of oxidized (HγD-ox) versus native HγD (HyD-nat), hypothesizing that bis-ANS would both act like the drugs and provide information on the role of exposed hydrophobicity ([40]). HγD was oxidized in diethylenetriaminepentaacetic acid […] phosphate buffer to facilitate hydroxyl radical formation and protein damage, followed by dialysis against DTPA-treated buffer to eliminate the known proaggregating effects of divalent metals ([32]) in the subsequent steps. […] Overall protective effects were more pronounced for the oxidized than nonoxidized form of HγD. […] In the hope to obtain clues on the impact of bis-ANS, drugs C, G, and M on protein aggregation status, native PAGE was performed (Fig. 3G). Polymers greater than 250 kD are present in unheated HγD-nat but only the size of 75 to 100 kD in HγD-ox. […] Other techniques will be needed to assess the relationship between drugs and aggregate size.
(§2) Thermal denaturation study was monitored using fluorescence spectroscopy. Protein solutions (10 μM) in the presence and absence of drugs or bis-ANS (100 μM) were heated continuously from 30 to 95 °C, and the fluorescence data were collected every 5 °C after 1 min equilibration at the given temperature. Unfolding data were fit to Greene and Pace’s two-state model ([82]) using GraphPad Prism software (GraphPad Software, Inc).

[2] = target: T2, WT-HγD crystallin (Homo sapiens, UniProt P07320); test: Thermal unfolding of WT-HγD by fluorescence ratio (Tm); details: 100 μM agent, 360/320 nm ratio; 78 ± 0.1 °C without agent
T2 construct: made in house; host or cells: E. coli BL21(DE3) pLysS, pET3d vector
T2 sequence (P07320 1-174): T1 sequence (P07320 1-174)
Source text: His-tag free recombinant HγD crystallin produced in Escherichia coli using pET3d or pET17b expression vector was used to investigate the effects of compounds C and G against thermal-induced unfolding and aggregate formation. The antiaggregation potency of drug C and G was reconfirmed by dynamic light scattering (DLS) (Fig. 2A). […] There is a decrease in the size of aggregates from as high as 7261 nm without drugs to 30.5 nm with drug C and 84.9 nm with drug G. Drug M has moderate activity with mean aggregate size of 569 nm radius (Table S2). […] Furthermore, we investigated whether these drugs can prevent thermal unfolding of HγD (Fig. 2C). […] It is the temperature at which 50% of the protein unfolds.
as §2

[3] = target: T1, HγD-ox; test: Turbidity (600 nm) of oxidized HγD heated 10 min at 72 °C; details: 1.4 mg/ml with DTPA, 100 and 500 μM bis-ANS, 100 μM drug C, 500 μM drug M
Source text: as §1

For O=S(=O)(O)c1cccc2c(-c3ccc(Nc4ccccc4)c4c(S(=O)(=O)O)cccc34)ccc(Nc3ccccc3)c12 [bis-ANS, bis-8-anilino-1-naphthalene sulfonic acid], the “Tm of HγD-ox” value [1] was 78 ± 0.1 °C, the “Tm of HγD-nat” value [2] was 82 ± 0.02 °C and the “Effect on aggregation/turbidity of HγD-ox” value [3] was “strongly suppressed; also recorded: potently inhibited aggregation”.

— publication PMC9525908, “α-Crystallin chaperone mimetic drugs inhibit lens γ-crystallin aggregation: Potential role for cataract prevention” (The Journal of Biological Chemistry, 2022)
